Laboratory results as given in patent US7078045B2, “Pharmaceutical composition for treatment and prevention of liver fibrosis and cirrhosis” (Sang-Geon Kim, priority 2000, dated 2006).
Like-named read-outs stand apart in the source and are kept apart here. Marks after values point to notes of the source that are not given here.

Columns and labels:
I-κBα degradation = I-κBα degradation after LPS in rats; type: in vivo, rat; conditions: LPS 1 μg/kg + DDB 100 mg/kg, 2 h prior to LPS
Procedure: (§1) Translocation of NF-κB to the nucleus was preceded by phosphorylation and proteolytic degradation of the I-κBα subunit. This test was conducted in order to ascertain whether the effect of DDB on NF-κB activation is associated with the inhibition of I-κBα degradation. The level of I-κBα protein was reduced 30 min after the treatment of rats with LPS (1 μg/kg). In contrast, treatment with DDB 2 h prior to LPS treatment attenuated the decrease in I-κBα protein by LPS. Also with RAW264.7 cells, DDB inhibited the degradation of I-κBα protein in a concentration-dependent manner at the concentrations of 0.3 to 1 mM.

[1] = tested on: I-κBα degradation in RAW264.7 cells; experiment: I-κBα degradation after LPS in RAW264.7 cells; type: cell-based
Procedure: as §1

NF-κB activation = experiment: LPS-inducible NF-κB activation in rat liver (EMSA); type: in vivo; conditions: 2 h prior to LPS
Procedure: It is known that NF-κB activation is associated with inflammatory responses. To compare the NF-κB activity in the liver tissue when DDB is administered with that when DDB is not administered, the following test was conducted. SD male rats with weight of about 150 g were used. For one group 7 rats were used. For the control group (vehicle administered) and test group (20 to 100 mg/kg/day of DDB administered), the NF-κB activity in accordance with the treatment of endotoxin (lipopolysaccharide, LPS) was measured by using Electrophoresis Mobility Shift Assay (EMSA).

TNF-α production = experiment: Plasma TNF-α after LPS in rats (ELISA); type: in vivo, rat; conditions: for plasma TNF-α level: LPS 1 μg/kg i.v., 2 h after administration; for % inhibition of LPS-induced plasma TNF-α elevation: Table 6, TNF-α production in plasma
Procedure: (§2) TNF-α is the principal mediator of the responses to LPS and is involved in inflammatory processes. It was determined by ELISA whether the amount of TNF-α released into blood decreases when NF-κB activity was inhibited by DDB. A single dose of LPS treatment (1 μg/kg, i.v.) increased the TNF-α level from 35 to 5160 pg per ml of plasma 2 h after administration. DDB treatment at a dose of 20, 50 or 100 mg/kg prevented the elevation of plasma TNF-α level by LPS, resulting in 1350, 1230 or 690 pg per ml of plasma, respectively. With the RAW264.7 cells, DDB decreased the production of TNF-α by LPS.

TGF-β mRNA expression = experiment: Effect of oltipraz/DDB combinations on TGF-β mRNA expression (quantitative RT-PCR) in DMN-administered animals; type: in vivo
Source text: As addressed above, TGF-β is a cytokine that causes hepatic fibrosis and is known to be associated with hepatic fibrosis development.
However, as the DDB to oltipraz ratio increases, the inhibition of TGF-β expression is progressively lost. In the animal group administered with DDB alone, TGF-β expression was not inhibited. Therefore, inhibition of TGF-β expression is considered to be caused by oltipraz. On this ground, the best combination ratio of oltipraz to DDB is 5:1 (Table 9).

[2] = tested on: NF-κB activation in Raw264.7 cells; experiment: LPS-induced NF-κB DNA binding activity in Raw264.7 cells; type: cell-based
Procedure: Stimulation of Raw264.7 cells with […] of LPS caused an increase in DNA binding activity of NF-κB after 30 min to 1 h. DDB at the concentrations of 0.1, 0.3 and 1 mM inhibited NF-κB activity in a concentration-dependent manner.

[3] = tested on: TNF-α production in RAW264.7 cells; experiment: TNF-α production by LPS in RAW264.7 cells; type: cell-based; conditions: Table 6, TNF-α production; LPS + DDB 1.0 mg/kg as printed
Procedure: as §2

[4] = tested on: TGF-β expression in RAW264.7 macrophage cells; experiment: Inhibition of TGF-β expression in RAW264.7 macrophage cells; type: cell-based
[5] = tested on: DMN induced hepatic fibrosis; experiment: animal or person
Source text: Plasma gamma-glutamyl transpeptidase (gamma-GT) activity and bilirubin content are used as indicators of hepatic functionality.
Each value is represented by the average ± standard deviation. The number of animals used ranged from 8 to 16. The significance of each group was indicated by the Newman-Keuls test of multiple analysis. The significance markers are: *=p<0.05 compared to control, #=p<0.05 compared to DMN treated group.
The anti-fibrotic activity of the oltipraz/DDB combination was evaluated by changing the component ratio of the combination. To evaluate the effect of the combination according to the component ratio, the dosage schedule of DMN was partially modified. That is, while DMN was administered to a rat 12 times totally in dosages of 10 μl/kg per administration over a 4-week period, 3 times a week in the test examples 1 and 2, to evaluate the effect of the combination according to the component ratio, an animal model with reduced liver damage was used wherein DMN was administered to a rat 9 times totally in dosages of 10 μl/kg per administration over a 3-week period, 3 times a week, and then not administered in the remaining one week in the test example.

TGF-β 1 mRNA expression = conditions: liver tissue; 100 mg/kg oltipraz given 18 hours after DMN, observed 24 hours later
[6] = tested on: DMN induced hepatic fibrosis; conditions: 3 times a week; for Fibrosis Values: score 0-4
Procedure: The degree of fibrosis was determined by evaluating the fibrosis and Knodell scores, which show degrees of liver damage and fibrosis.
Each value is represented by the average ± standard deviation. The number of animals used was 8 to 16. The significance of each group is determined by the Newman-Keuls test of multiple analysis. *p<0.05, **p<0.01. Degree of fibrosis 0=Normal, 1=Presence of weak fibrous tissue, 2=Moderate presence of fibrous tissue, 3=Obvious presence of fibrous tissue, 4=Evidence of severe fibrosis. Sum of values from periportal bridging (Greatest=10), intralobular cell loss (Greatest=4), portal inflammation (Greatest=4), and fibrosis (Greatest=4) yields the Knodell score.

[7] = plasma, DMN 4 weeks + Oltipraz 50 mg/kg
[8] = DMN 4 weeks + Oltipraz 5 mg/kg oral
[9] = DMN 4 weeks + Oltipraz 15 mg/kg oral
[10] = DMN 4 weeks + Oltipraz 50 mg/kg oral

## COC(=O)c1cc(OC)c2c(c1-c1c(C(=O)OC)cc(OC)c3c1OCO3)OCO2 [DDB, dimethyl-4,4′-dimethoxy-5,6,5′,6′-dimethylene dioxybiphenyl-2,2′-dicarboxylate]
I-κBα degradation
  % inhibition of I-κBα degradation: 67%
[1]; LPS 1 μg/ml + DDB 0.1 mM
  % inhibition of I-κBα degradation: 22%
[1]; LPS 1 μg/ml + DDB 0.3 mM
  % inhibition of I-κBα degradation: 34%
[1]; LPS 1 μg/ml + DDB 1.0 mM
  % inhibition of I-κBα degradation: 65%
NF-κB activation; LPS 1 μg/kg + DDB 20 mg/kg
  % inhibition of NF-κB activation: 42%
NF-κB activation; LPS 1 μg/kg + DDB 50 mg/kg
  % inhibition of NF-κB activation: 63%
NF-κB activation; LPS 1 μg/kg + DDB 100 mg/kg
  % inhibition of NF-κB activation: 73%
TNF-α production; DDB 20 mg/kg
  plasma TNF-α level: 1350 pg per ml of plasma
TNF-α production; DDB 50 mg/kg
  plasma TNF-α level: 1230 pg per ml of plasma
TNF-α production; DDB 100 mg/kg
  plasma TNF-α level: 690 pg per ml of plasma
TNF-α production; LPS 1 μg/kg + DDB 20 mg/kg
  % inhibition of LPS-induced plasma TNF-α elevation: 74%
TNF-α production; LPS 1 μg/kg + DDB 50 mg/kg
  % inhibition of LPS-induced plasma TNF-α elevation: 76%
TNF-α production; LPS 1 μg/kg + DDB 100 mg/kg
  % inhibition of LPS-induced plasma TNF-α elevation: 87%
TGF-β mRNA expression; DMN + DDB 30 mg/kg
  % Inhibition of TGF-β mRNA expression: 0%
TGF-β mRNA expression; DMN + DDB alone
  TGF-β expression (result in words): not inhibited
[2]; LPS 1 μg/ml + DDB 0.1 mM
  % inhibition of NF-κB activation: 33%
[2]; LPS 1 μg/ml + DDB 0.3 mM
  % inhibition of NF-κB activation: 35%
[2]; LPS 1 μg/ml + DDB 1.0 mM
  % inhibition of NF-κB activation: 65%
[3]
  % inhibition of TNF-α production: 65%

## O=c1c(-c2ccc(O)cc2)coc2cc(O)cc(O)c12 [Genistein, genistein]
[4]; Mus musculus, Genistein 100 μM, read-out: TGF-β Inhibition Percentage (%)
  inhibition at 100 µM: 80%

## O=C(O)CN(CCOCCOCCN(CC(=O)O)CC(=O)O)CC(=O)O [EGTA]
[4]; EGTA 1 mM
  TGF-β Inhibition Percentage (%): 80%

## Cc1c(-c2cnccn2)ssc1=S [Oltipraz, 5-(2-pyrazinyl)-4-methyl-1,2-dithiol-3-thione]
[4]; Mus musculus, Oltipraz 30 μM, read-out: TGF-β Inhibition Percentage (%)
  inhibition at 30 µM: 30%
[4]; Mus musculus, Oltipraz 100 μM, read-out: TGF-β Inhibition Percentage (%)
  inhibition at 100 µM: 60%
[5]; 50 mg/kg of oltipraz administered alone (stated in Test Example 7)
  inhibition percentage of ALT increase by DMN: 40%
[5]; Rattus norvegicus, read-out: inhibition of plasma bilirubin increase
  inhibition at 50 mg/kg: 65%
[5]; [7]
  ALT: 116 ± 4^#
  AST: 246 ± 32^#
  Bilirubin: 0.3 ± 0.03^#
  gamma-GT: 2.6 ± 0.5^#
TGF-β mRNA expression; DMN + 30 mg/kg of oltipraz
  TGF-β expression (result in words): completely inhibited
TGF-β mRNA expression; DMN + oltipraz 30 mg/kg
  % Inhibition of TGF-β mRNA expression: 65%
TGF-β 1 mRNA expression
  DMN induced expression of TGF-β 1 mRNA: completely inhibited
[6]; [8]
  Knodell Values: 11.1 ± 1.7*
  Fibrosis Values: 3.1 ± 0.4*
[6]; [9]
  Knodell Values: 12.1 ± 1.9*
  Fibrosis Values: 2.9 ± 0.8*
[6]; [10]
  Knodell Values: 8.0 ± 1.6**
  Fibrosis Values: 2.5 ± 0.9**
